# Source: patent US9233983B2, “Substituted hetero-bicyclic compounds, compositions and medicinal applications thereof” (ADVINUS THERAPEUTICS LIMITED, priority 2012, dated 2016)
# pIC50: −log10 of the molar value.
# Tests used:
# mouse splenocytes = assay: Inhibition of B Cell Activation as Measured by CD69 Expression in Mouse Splenocytes; format: cell-based; settings: Splenocyte; C57/BL6 splenocytes, 3 ug/mL goat anti-mouse IgM, 18-20 hrs, CD69+ve cells within CD19; read-out: Mouse spleenocyte IC50
# Procedure, shortened: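 Total mouse splenocytes pre-incubated with compounds (half-log dilutions; DMSO 200× stocks from 2 mM) 30 min at 37 °C, then stimulated with 3 ug/mL anti-mouse IgM for 18-20 hrs. CD69+ cells within CD19+ B cells quantified by flow cytometry; IC50 from variable-slope sigmoid dose-response fit.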
# [1] = biological target: human Bruton's Tyrosine Kinase (Btk) (Homo sapiens (Human), UniProt Q06187); assay: Recombinant Human Bruton's Tyrosine Kinase (Btk) Inhibition Assay (HTRF KinEASE-TK); format: biochemical; settings: 20 ng/ml rhBtk, 77 μM ATP (KM), 1 μM TK-Biotin substrate, 90 min; read-out: hBTK IC50
# Sequence of human Bruton's Tyrosine Kinase (Btk) (Q06187 whole entry): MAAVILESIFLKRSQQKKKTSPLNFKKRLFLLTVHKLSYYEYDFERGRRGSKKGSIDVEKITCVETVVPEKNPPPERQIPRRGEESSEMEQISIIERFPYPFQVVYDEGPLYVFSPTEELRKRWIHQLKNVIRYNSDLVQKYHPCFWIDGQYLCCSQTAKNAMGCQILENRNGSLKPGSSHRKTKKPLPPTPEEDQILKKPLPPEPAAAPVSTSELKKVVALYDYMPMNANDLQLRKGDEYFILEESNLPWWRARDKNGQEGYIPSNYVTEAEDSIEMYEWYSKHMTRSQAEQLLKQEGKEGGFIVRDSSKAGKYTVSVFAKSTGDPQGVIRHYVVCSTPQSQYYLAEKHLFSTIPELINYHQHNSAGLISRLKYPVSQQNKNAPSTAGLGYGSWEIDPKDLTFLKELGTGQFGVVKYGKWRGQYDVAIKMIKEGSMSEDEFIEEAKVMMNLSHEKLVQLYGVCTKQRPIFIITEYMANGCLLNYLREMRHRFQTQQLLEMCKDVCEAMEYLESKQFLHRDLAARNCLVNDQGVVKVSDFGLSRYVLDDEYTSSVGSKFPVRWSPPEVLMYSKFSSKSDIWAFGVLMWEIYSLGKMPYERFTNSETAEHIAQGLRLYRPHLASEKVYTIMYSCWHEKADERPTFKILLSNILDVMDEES
SMILES,pIC50 (mouse splenocytes),pIC50 [1]
"NC(=O)CN1CC=C(c2cc3c(-c4cccc(N5CCOc6cc(C7CC7)cc(F)c6C5=O)c4CO)ccnc3[nH]2)CC1 [Example P-31, 2-[4-[4-[3-(8-cyclopropyl-6-fluoro-5-oxo-2,3-dihydro-1,4-benzoxazepin-4-yl)-2-(hydroxymethyl)phenyl]-1H-pyrrolo[2,3-b]pyridin-2-yl]-3,6-dihydro-2H-pyridin-1-yl]acetamide]",7.28,8.28
"CC(=O)N1CC(N2CC=C(c3cc4c(-c5cccc(N6CCOc7cc(C8CC8)cc(F)c7C6=O)c5CO)ccnc4[nH]3)CC2)C1 [Example R-1, 4-[3-[2-[1-(1-acetylazetidin-3-yl)-3,6-dihydro-2H-pyridin-4-yl]-1H-pyrrolo[2,3-b]pyridin-4-yl]-2-(hydroxymethyl)phenyl]-8-cyclopropyl-6-fluoro-2,3-dihydro-1,4-benzoxazepin-5-one]",7.12,8.66
"CCN1CC(N2CC=C(c3cc4c(-c5cccc(N6CCOc7cc(C8CC8)cc(F)c7C6=O)c5CO)ccnc4[nH]3)CC2)C1 [Example R-2, 8-cyclopropyl-4-[3-[2-[1-(1-ethylazetidin-3-yl)-3,6-dihydro-2H-pyridin-4-yl]-1H-pyrrolo[2,3-b]pyridin-4-yl]-2-(hydroxymethyl)phenyl]-6-fluoro-2,3-dihydro-1,4-benzoxazepin-5-one]",7.68,8.82
"CCN1CC=C(c2cc3c(-c4cccc(N5CCOc6cc(C7CC7)cc(F)c6C5=O)c4CO)ccnc3[nH]2)CC1 [Example R-3, 8-cyclopropyl-4-[3-[2-(1-ethyl-3,6-dihydro-2H-pyridin-4-yl)-1H-pyrrolo[2,3-b]pyridin-4-yl]-2-(hydroxymethyl)phenyl]-6-fluoro-2,3-dihydro-1,4-benzoxazepin-5-one]",7.07,7.66
"CN1CC(N2CC=C(c3cc4c(-c5cccc(N6CCOc7cc(C8CC8)cc(F)c7C6=O)c5CO)ccnc4[nH]3)CC2)C1 [Example R-4, 8-cyclopropyl-6-fluoro-4-[2-(hydroxymethyl)-3-[2-[1-(1-methylazetidin-3-yl)-3,6-dihydro-2H-pyridin-4-yl]-1H-pyrrolo[2,3-b]pyridin-4-yl]phenyl]-2,3-dihydro-1,4-benzoxazepin-5-one]",7.15,8.80
"CCN1CC(C(=O)N2CC=C(c3cc4c(-c5cccc(N6CCOc7cc(C8CC8)cc(F)c7C6=O)c5CO)ccnc4[nH]3)CC2)C1 [Example R-5, 8-cyclopropyl-4-[3-[2-[1-(1-ethylazetidine-3-carbonyl)-3,6-dihydro-2H-pyridin-4-yl]-1H-pyrrolo[2,3-b]pyridin-4-yl]-2-(hydroxymethyl)phenyl]-6-fluoro-2,3-dihydro-1,4-benzoxazepin-5-one]",7.29,9.12
"C=CC(=O)N1CCCC(n2cc(-c3cc4c(-c5cccc(N6CCOc7cc(C8CC8)ccc7C6=O)c5CO)ncnc4[nH]3)cn2)C1 (stereo not shown) [Example S-1, 8-cyclopropyl-4-[2-(hydroxymethyl)-3-[6-[1-(1-prop-2-enoyl-3-piperidyl)pyrazol-4-yl]-7H-pyrrolo[2,3-d]pyrimidin-4-yl]phenyl]-2,3-dihydro-1,4-benzoxazepin-5-one]",6.89,8.40
"N#CCN1CC(n2cc(-c3cc4c(-c5cccc(N6CCOc7cc(C8CC8)ccc7C6=O)c5CO)ccnc4[nH]3)cn2)C1 [Example S-2, 2-[3-[4-[4-[3-(8-cyclopropyl-5-oxo-2,3-dihydro-1,4-benzoxazepin-4-yl)-2-(hydroxymethyl)phenyl]-1H-pyrrolo[2,3-b]pyridin-2-yl]pyrazol-1-yl]azetidin-1-yl]acetonitrile]",6.90,7.92
